In patent publication US6528511B2, “Partial fatty acid oxidation inhibitors in the treatment of congestive heart failure” (CV Therapeutics, Inc., priority 2000, dated 2003):
Like-named read-outs stand apart in the source and are kept apart here. One block for each compound: values may come before it.

What was measured:
[1] = Solubility of ranolazine in aqueous solutions versus solution pH; type: physicochemical
[2] = Ascending-dose SR bid study in healthy male volunteers, Day 5 pharmacokinetics of racemate and enantiomers; type: in vivo, human; conditions: for concentration at 96 h / concentration at 108 h: male, human, plasma, oral; for concentration at 96 h: read-out: C96h; for concentration at 108 h: read-out: C108h; for Differences in pharmacokinetic parameters between enantiomers: multiple dosing with SR formulation
Method: This Example evaluated the safety and tolerability of administering racemic ranolazine free base formulations as in Example 3D. The individual and mean concentrations of racemic ranolazine and its enantiomers, (R)-(+)-N-(2,6-dimethylphenyl)-4-[2-hydroxy-3-(2 methoxyphenoxy)-propyl]-1-piperazineacetamide, (S)-(−)-N-(2,6-dimethylphenyl)-4-[2hydroxy-3-(2-methoxyphenoxy)-propyl]-1-piperazineacetamide in human plasma were also determined.
The study was performed with ascending doses of sustained release ranolazine dosage forms. Before and at intervals during and after the dosing period, blood samples were drawn for ranolazine assay and blood pressure, heart rate, ECG and symptoms were monitored throughout. Data summaries were reviewed after each phase before proceeding to the next phase of the study. Eight subjects, all healthy male volunteers aged between 18 and 40 entered and all completed the study and were available for pharmacokinetic and safety analysis. The subjects were each given doses of the various types of ranolazine free base in the form of sustained release tablets including 500 mg and 750 mg tablets or with matching placebo as necessary (2×750 mg size plus 1×500 mg size) to make unit oral doses of 1500 and 2000 mg.
In each phase: one dose bid for four days with a single dose on Day 5. On day 5 each volunteer underwent a full pharmacokinetic profile including supine and erect blood pressure (BP) and heart rate, ECG data, adverse events, clinical chemistry and hematology results, urinalysis results.
These tests were made using two-sided t-tests with estimates of variability from the ANOVA models. Steady state was also assessed by comparing means for C48 h, C72 h and C96 h using a mixed effects ANOVA model and untransformed and log, transformed data. For hemodynamic parameters, Day 1 pre-dose treatment means and Day 5 data were compared across treatments via two-sided t-tests using estimates of variability from mixed effects ANOVA models. Ninety and 95% confidence intervals were calculated for the treatment comparisons. No adjustments were made for multiple comparisons.

[3] = test system: Patients, with or without congestive heart failure, with reproducible angina-limited exercise duration; assay: Exercise treadmill tolerance testing (ETT), modified Bruce protocol, crossover versus placebo; type: in vivo, human; conditions: 500-1500 mg bid
Method: Patients, with or without congestive heart failure were withdrawn from anti-anginal drugs with reproducible anginalimited exercise duration and >1 mm ST depression were randomized to Ran (500 mg bid, 1000 mg bit and 1500 mg bid) and matching placebo (Pbo) in a double-blind, four-period, Latin square crossover design. Exercise treadmill tolerance testing (ETT) was performed following a modified Bruce protocol, at trough (12 hr after dosing) and peak (4 hr after dosing) dosing times.

dogs with heart failure = assay: Canine model of congestive heart failure (intracoronary microembolizations), hemodynamic and angiographic measurements; type: in vivo, dog; conditions: iv bolus 0.5 mg/kg then 1.0 mg/kg/hr for 40 min
Method: The efficacy of ranolazine was studied using a canine model of congestive heart failure. Chronic LV dysfunction and failure was produced by multiple sequential intracoronary embolizations with polystyrene Latex microspheres (70-102 μm in diameter) which results in loss of viable myocardium. In the present study, 13 healthy mongrel dogs weighing between 23 and 25 kg underwent coronary microembolizations to produce heart failure. Intracoronary microembolizations were performed during cardiac catheterization under general anesthesia and sterile conditions. The anesthesia regimen consisted of intravenous oxymorphone hydrochloride (0.22 mg/kg), diazepam (0.17 mg/kg) and sodium pentobarbital (150-250 mg to effect). Dogs underwent an average of 5 microembolization procedures performed 1 to 3 weeks apart. Embolizations were discontinued when LV ejection fraction, determined angiographically, was <30%. Dogs were maintained for a period of 2-3 weeks to ensure that infarctions produced by the last microembolization were completely healed before studies were initiated. […] (The study was approved by the Henry Ford Health System Care of Experimental Animals Committee and conformed to the “Position of the American Heart Association on Research Animal Use,” adopted by the Association in November 1984, and to the Guiding Principles of the American Physiological Society on use of research animals). On the day of the study and following general anesthesia, aortic and LV pressure were measured with a catheter-tip micromanometer (Millar Instruments, Houston, Tex.) positioned through a femoral arteriotomy. Single-plane left ventriculograms were obtained during each catheterization after completion of the hemodynamic measurements with the dog placed on its right side. Ventriculograms were recorded on 35 mm cine film at 30 frames per second during the injection of 20 ml of contrast material (Reno-M-60, Squib, Princeton, N.J.). Correction for image magnification was made with a calibrated radiopaque grid placed at the level of the LV. Left ventricular end-systolic and end-diastolic volumes were calculated from ventricular silhouettes using the area-length method. The LV ejection fraction was calculated as the ratio of the difference of end-diastolic volume and end-systolic volume to end-diastolic volume times 100. Stroke volume was calculated as the difference between LV end-systolic and end-diastolic volumes obtained from the ventriculogram. Cardiac output was calculated as the product of stroke volume and heart rate. Extra systolic and post-extra systolic beats were excluded from all analyses. In each normal or heart failure dog, ranolazine dihydrochloride was administered in saline as an intravenous bolus injection of 0.5 mg/kg followed by a continuous intravenous infusion of 1.0 mg/kg/hr for 40 min. Arterial blood samples were drawn for determination of plasma ranolazine concentration. Samples were obtained at 5, 10, 20, 30, 35 and 40 min after initiation of treatment. Ranolazine was measured by high performance liquid chromatography (HPLC) using mass spectral detection. Following the withdrawal of the final blood sample at 40 min, hemodynamic and angiographic measurements were repeated. Each animal served as its own control. Pre-treatment values were compared to post-treatment values using a two-tailed paired Student's t-test with significance set at p<0.05. Data are presented as the mean±standard error of the mean.

[4] = Arterial plasma ranolazine concentration in normal and heart failure dogs (HPLC-MS); type: in vivo, dog; conditions: for Average ranolazine concentration during the final 10 minutes of treatment: dihydrochloride iv bolus 0.5 mg/kg then 1.0 mg/kg/hr for 40 min, mean±SEM
Method: In each normal or heart failure dog, ranolazine dihydrochloride was administered in saline as an intravenous bolus injection of 0.5 mg/kg followed by a continuous intravenous infusion of 1.0 mg/kg/hr for 40 min. Arterial blood samples were drawn for determination of plasma ranolazine concentration. Samples were obtained at 5, 10, 20, 30, 35 and 40 min after initiation of treatment. Ranolazine was measured by high performance liquid chromatography (HPLC) using mass spectral detection. Following the withdrawal of the final blood sample at 40 min, hemodynamic and angiographic measurements were repeated.

SMILES: COc1ccccc1OCC(O)CN1CCN(CC(=O)Nc2c(C)cccc2C)CC1 (racemic) [ranolazine, (±)-N-(2,6-dimethylphenyl)-4-[2-hydroxy-3-(2-methoxyphenoxy)-propyl]-1-piperazineacetamide]
USP Solubility Class ([1]; Solution pH 4.81): Freely Soluble
USP Solubility Class ([1]; Solution pH 4.89): Soluble
USP Solubility Class ([1]; Solution pH 4.90): Soluble
USP Solubility Class ([1]; Solution pH 5.04): Soluble
USP Solubility Class ([1]; Solution pH 5.35): Sparingly Soluble
USP Solubility Class ([1]; Solution pH 5.82): Slightly soluble
USP Solubility Class ([1]; Solution pH 6.46): Slightly soluble
USP Solubility Class ([1]; Solution pH 6.73): Very slightly soluble
USP Solubility Class ([1]; Solution pH 7.08): Very slightly soluble
USP Solubility Class ([1]; Solution pH 7.59 (unbuffered water)): Very slightly soluble
USP Solubility Class ([1]; Solution pH 7.79): Very slightly soluble
USP Solubility Class ([1]; Solution pH 12.66): Very slightly soluble
Solubility in aqueous solutions ([1]; pH above about 6.5): relatively insoluble
Cave ([2]; Day 5, 1500 mg SR bid): 4126 ± 1995 ng/mL
Cmin ([2]; Day 5, 1500 mg SR bid): 2932 ± 1918 ng/mL
Degree of fluctuation ([2]; Day 5, 1500 mg SR bid): 0.664 ± 0.336
Cave ([2]; Day 5, 2000 mg SR bid): 5705 ± 2153 ng/mL
Cmin ([2]; Day 5, 2000 mg SR bid): 4149 ± 2228 ng/mL
Degree of fluctuation ([2]; Day 5, 2000 mg SR bid): 0.591 ± 0.240
Steady-state plasma levels attained by ([2]; SR bid dosing, ranolazine free base): ≤ 4 days
concentration at 96 h ([2]; 1500 mg SR bid): 3660 ± 1920 ng/mL
concentration at 108 h ([2]; 1500 mg SR bid): 2940 ± 1940 ng/mL
concentration at 96 h ([2]; 2000 mg SR bid): 5040 ± 1800 ng/mL
concentration at 108 h ([2]; 2000 mg SR bid): 4400 ± 2400 ng/mL
Effects vs. Pbo on rest or exercise blood pressure or heart rate [3]: no clinically meaningful effects
Exercise duration times in comparison to the placebo [3]: improved
Effect on heart rate (dogs with heart failure; post- vs pre-treatment): no significant effects
Effect on mean aortic pressure (dogs with heart failure; post- vs pre-treatment): no significant effects
LV ejection fraction (dogs with heart failure; post- vs pre-treatment): significant increase
LV peak+dP/dt (dogs with heart failure; post- vs pre-treatment): significant increase
LV stroke volume (dogs with heart failure; post- vs pre-treatment): significant increase
LV peak−dP/dt (diastolic function) (dogs with heart failure; data not shown): increase
Average ranolazine concentration during the final 10 minutes of treatment ([4]; dogs with heart failure): 0.33 ± 0.04 µg/mL
Time by which arterial ranolazine levels stabilized following the bolus injection ([4]; iv bolus plus infusion, dogs): ≤ 10 min
Average ranolazine concentration during the final 10 minutes of treatment ([4]; normal dogs): 0.3 ± 0.02 µg/mL

Cave ([2]; Day 5, 1500 mg SR bid): 2144 ± 1115 ng/mL
Cmin ([2]; Day 5, 1500 mg SR bid): 1436 ± 1046 ng/mL
Degree of fluctuation ([2]; Day 5, 1500 mg SR bid): 0.833 ± 0.402
concentration at 96 h ([2]; 1500 mg SR bid): 2010 ± 1140 ng/mL
concentration at 108 h ([2]; 1500 mg SR bid): 1450 ± 1070 ng/mL
Differences in pharmacokinetic parameters between enantiomers [2]: no differences
SMILES: COc1ccccc1OC[C@H](O)CN1CCN(CC(=O)Nc2c(C)cccc2C)CC1 [(+)R ranolazine, (R)-(+)-N-(2,6-dimethylphenyl)-4-[2-hydroxy-3-(2 methoxyphenoxy)-propyl]-1-piperazineacetamide]

Cave ([2]; Day 5, 1500 mg SR bid): 2201 ± 1237 ng/mL
Cmin ([2]; Day 5, 1500 mg SR bid): 1514 ± 1201 ng/mL
Degree of fluctuation ([2]; Day 5, 1500 mg SR bid): 0.824 ± 0.443
concentration at 96 h ([2]; 1500 mg SR bid): 2400 ± 1200 ng/mL
concentration at 108 h ([2]; 1500 mg SR bid): 1540 ± 1260 ng/mL
Differences in pharmacokinetic parameters between enantiomers [2]: no differences
SMILES: COc1ccccc1OC[C@@H](O)CN1CCN(CC(=O)Nc2c(C)cccc2C)CC1 [(−)S ranolazine, (S)-(−)-N-(2,6-dimethylphenyl)-4-[2hydroxy-3-(2-methoxyphenoxy)-propyl]-1-piperazineacetamide]
